Test results reported in ChEMBL document CHEMBL5154845, “Dual-acting antitumor agents targeting the A2A adenosine receptor and histone deacetylases: Design and synthesis of 4-(furan-2-yl)-1H-pyrazolo[3,4-d]pyrimidin-6-amine derivatives” (Eur J Med Chem, 2022).

Tests used:
MC-38 [1] = assay: Antiproliferative activity against mouse MC38 cells after 72 hrs by CCK-8 assay; type: functional
[2] = Elimination rate constant in male ICR mouse at 20 mg/kg, po measured up to 24 hrs by LC-MS/MS analysis; type: ADME, organism-based; conditions: in vivo
[3] = Elimination rate constant in male ICR mouse at 5 mg/kg, iv measured up to 24 hrs by LC-MS/MS analysis; type: ADME, organism-based; conditions: in vivo
[4] = Cmax in male ICR mouse at 5 mg/kg, iv measured up to 24 hrs by LC-MS/MS analysis; type: ADME, organism-based; parameters: dose 5 mg/kg, time < 24 hrs, route iv; conditions: in vivo
[5] = Mean residence time in male ICR mouse at 5 mg/kg, iv measured up to 24 hrs by LC-MS/MS analysis; type: ADME, organism-based; conditions: in vivo
[6] = Half-life in male ICR mouse at 20 mg/kg, ip measured up to 24 hrs by LC-MS/MS analysis; type: ADME, organism-based; conditions: in vivo
Adenosine receptor A2b = biological target: T1, Adenosine receptor A2b (Homo sapiens, UniProt P29275); assay: Displacement of [3H]DPCPX from human A2BAR incubated for 60 mins by scintillation counter analysis
T1 sequence (P29275 whole entry): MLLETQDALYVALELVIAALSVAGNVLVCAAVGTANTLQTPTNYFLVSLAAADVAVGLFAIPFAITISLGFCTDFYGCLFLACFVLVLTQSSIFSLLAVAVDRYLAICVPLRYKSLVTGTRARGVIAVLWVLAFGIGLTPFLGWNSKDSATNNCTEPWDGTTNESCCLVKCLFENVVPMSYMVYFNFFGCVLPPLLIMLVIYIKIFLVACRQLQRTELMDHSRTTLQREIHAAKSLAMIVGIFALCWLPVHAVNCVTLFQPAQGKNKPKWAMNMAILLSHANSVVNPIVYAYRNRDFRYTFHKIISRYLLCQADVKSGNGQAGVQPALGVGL

Histone deacetylase 3 = Histone deacetylase 3 (Homo sapiens, UniProt O15379); assay: Inhibition of HDAC3 (unknown origin) using trypsin and LGK(Ac)-AMC as substrates incubated for 1 hr and measured by fluorescence assay
[7] = biological target: T2, Protein deacetylase HDAC6 (Homo sapiens, UniProt Q9UBN7); assay: Inhibition of HDAC6 (unknown origin) using trypsin and LGK(Ac)-AMC as substrates incubated for 1 hr and measured by fluorescence assay
T2 sequence (Q9UBN7 whole entry): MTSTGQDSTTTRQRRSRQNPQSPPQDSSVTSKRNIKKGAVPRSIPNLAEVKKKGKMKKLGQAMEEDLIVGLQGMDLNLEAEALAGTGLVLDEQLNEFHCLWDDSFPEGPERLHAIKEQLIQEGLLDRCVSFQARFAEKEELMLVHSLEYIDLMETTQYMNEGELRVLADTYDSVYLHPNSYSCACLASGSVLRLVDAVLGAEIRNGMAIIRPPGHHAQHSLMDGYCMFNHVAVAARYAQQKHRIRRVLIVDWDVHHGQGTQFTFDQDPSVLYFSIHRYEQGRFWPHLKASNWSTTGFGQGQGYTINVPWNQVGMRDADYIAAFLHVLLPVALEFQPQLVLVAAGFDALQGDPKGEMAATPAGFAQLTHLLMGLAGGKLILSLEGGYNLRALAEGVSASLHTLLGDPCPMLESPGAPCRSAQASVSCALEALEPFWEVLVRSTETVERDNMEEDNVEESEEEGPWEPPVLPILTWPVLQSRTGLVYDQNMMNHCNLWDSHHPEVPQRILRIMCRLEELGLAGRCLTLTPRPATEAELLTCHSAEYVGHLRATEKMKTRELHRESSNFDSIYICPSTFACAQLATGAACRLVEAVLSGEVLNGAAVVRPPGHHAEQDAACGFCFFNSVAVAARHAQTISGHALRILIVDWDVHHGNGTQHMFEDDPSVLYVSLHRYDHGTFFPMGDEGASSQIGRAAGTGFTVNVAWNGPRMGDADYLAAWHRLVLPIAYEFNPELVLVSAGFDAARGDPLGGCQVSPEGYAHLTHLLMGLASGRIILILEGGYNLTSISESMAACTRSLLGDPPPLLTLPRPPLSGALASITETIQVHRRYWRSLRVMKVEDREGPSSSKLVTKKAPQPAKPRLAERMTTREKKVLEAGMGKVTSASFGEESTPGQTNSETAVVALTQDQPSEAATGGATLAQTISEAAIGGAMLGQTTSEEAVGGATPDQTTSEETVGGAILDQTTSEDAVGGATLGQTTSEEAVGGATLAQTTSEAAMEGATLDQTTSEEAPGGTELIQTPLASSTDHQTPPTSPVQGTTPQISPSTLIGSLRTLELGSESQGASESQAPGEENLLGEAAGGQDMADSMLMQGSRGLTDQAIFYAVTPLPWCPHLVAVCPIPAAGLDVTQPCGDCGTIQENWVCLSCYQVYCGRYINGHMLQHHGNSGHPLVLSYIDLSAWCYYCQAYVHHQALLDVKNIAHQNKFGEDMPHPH

MC-38 [8] = assay: Antitumor activity against mouse MC38 cells xenografted in C57 mouse assessed as tumor growth inhibition at 30 mg/kg, ip administered twice a day; type: functional; conditions: read-out: TGI

Sequence of Histone deacetylase 3 (O15379 whole entry): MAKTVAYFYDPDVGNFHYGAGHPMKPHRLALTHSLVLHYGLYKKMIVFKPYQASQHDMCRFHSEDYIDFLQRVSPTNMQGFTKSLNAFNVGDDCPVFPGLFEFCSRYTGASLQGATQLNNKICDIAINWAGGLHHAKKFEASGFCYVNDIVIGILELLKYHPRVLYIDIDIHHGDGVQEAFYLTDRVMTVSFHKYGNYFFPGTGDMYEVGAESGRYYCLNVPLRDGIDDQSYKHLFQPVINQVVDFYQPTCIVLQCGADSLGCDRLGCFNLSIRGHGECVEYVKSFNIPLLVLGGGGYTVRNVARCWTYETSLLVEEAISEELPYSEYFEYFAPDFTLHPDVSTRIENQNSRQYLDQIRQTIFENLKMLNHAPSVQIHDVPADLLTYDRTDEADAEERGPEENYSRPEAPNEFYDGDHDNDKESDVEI

k el at 24 h [2]: 0.000108 s⁻¹
k el at 24 h [3]: 0.000506 s⁻¹
Cmax [4]: 4700 ng/mL
MRT [5]: 23.4 min
half-life [6]: 49.8 min
Ki (Adenosine receptor A2b): > 10000 nM
IC50 (Histone deacetylase 3): 444 nM
IC50 [7]: > 10000 nM
SMILES: Nc1nc(-c2ccco2)c2cnn(CCc3ccc(C(=O)Nc4ccccc4N)cc3)c2n1
GI50 (MC-38 [1]): 290 nM
inhibition in vivo at 30 mg/kg (MC-38 [8]): 68%
